Columns and labels:
tumor cells = assay: Cell-based proliferation (sensitization) assay (Example 2); conditions: ratio of GI90 of the chemotherapy agent in absence to that in presence of Chk1 inhibitor
Protocol: Chk1 inhibitors were tested in a cell-based proliferation assay for the ability to sensitize tumor cells to ionizing radiation or chemotherapy agents. Chk1 inhibitors were tested in combination with 5-FU, gemicitabine, ionizing radiation, camptothecin, etoposide, hydroxyurea, cisplatin, fludarabine, Ara-C and aphidicolin. For each experiment, a serial dilution of each compound in combination with a ten-point dilution of each chemotherapy agent was included, in order to determine the concentration of chemotherapeutic required to inhibit the growth of 90% (GI90) of the cells in the presence and absence of the Chk1 inhibitor. This ratio of GI90 in the absence of Chk1 inhibitor to that in the presence of Chk1 inhibitor is called the “fold sensitization.” Fold sensitization was plotted as a function of Chk1 inhibitor concentration and the amount of drug required to yield two-fold sensitization was calculated. […] Another parameter analyzed was the fold sensitization achieved at the LD50 (the dose of compound alone that inhibits growth of 50% of cells) for the compound. These two values allow direct ranking of both the potency and toxicity of Chk1 inhibitors with respect to one another.

HT29 cells = assay: Cell cycle phase distribution by propidium iodide DNA content; format: cell-based, human; conditions: low-level camptothecin, 20 nM for 24 hours
Text: The proportion of cells in different phases of the cell cycle can be measured by those skilled in the art using any one of a variety of techniques. For example, a fluorescent DNA-binding dye, propidium iodide, can be used to distinguish cells in different cell cycle phases. Since cells in G2 have twice as much DNA as cells in G1, and S phase cells show an intermediate amount of DNA, the technique allows one to identify cells in different phases based on the DNA content of a cell. This method can be carried out on cell lines and tumor specimens (Cerra et al., Methods in Cell Biology, 33:1-12, 1990) Furthermore, cells in S phase can be labeled with the nucleotide analog, bromo-deoxyuridine (BrdU) and then fixed and stained with an fluorescent-tagged antibody to BrdU. Both of these methods employ fluorescence cytometry or fluorescence activity cell sorting (FACS) to quantify the proportion of cells staining with these fluorescent markers. […]
Two cell samples, each containing the same human carcinoma cell line (HT29) were prepared. Using propidium iodide (PI) to monitor DNA content, the percentage of cells the G1, S, and G2/M phases of the cell cycle were measured before and after contact with low levels of camptothecin. […]

Chk1 = Chk1 serine 296 phosphorylation, Western blot in HT29 cells; format: cell-based, human; conditions: tumor cells treated with gemcitabine; Chk1 inhibitors for 15 minutes
Protocol: Phosphorylation at this site is not inhibited by Wortinannin, which inhibits Atm and Atr. Therefore the phosphorylation of serine 296 is distinct from phosphorylation at serines 317 and 345 described in Example 12. […] Therefore, this approach may be used to monitor Chk1 activity in tumors in response to Chk1 activators. Further, this approach may be used to measure inhibition of Chk1 activation by Chk1 inhibitors.
Thus, HT 29 cells were treated with 20 μM gemcitabine for two hours. The gemcitabine was washed out of the cell growth media and cells were incubated for 22 additional hours. Protein lysates were prepared and separated by an SDS-polyacrylamide gel electrophoresis. Proteins were transferred to polyvinylidene fluoride (PVDF) membranes and probed with antisera (Cell Signalling) specific for phosphorlyated serine 296 (Cell Signalling). […] Further, HT29 cells treated with selective Chk1 inhibitors for 15 minutes show no serine 296 phosphorylation.

Compound	Fold Sensitization to Agent by Chk1 Inhibitor (tumor cells) [fold]	further results
Nc1ccn([C@@H]2O[C@H](CO)[C@@H](O)[C@@H]2O)c(=O)n1 [Ara-C, cytosine arabinoside]	9	
CC[C@@]1(O)C(=O)OCc2c1cc1n(c2=O)Cc2cc3ccccc3nc2-1 [camptothecin]	5	G1 (%) (HT29 cells; PI staining): 6.75%; G2/M* (%) (HT29 cells; combined total in G2 + M phase): 7%
N.N.[Cl][Pt][Cl] [Cisplatin, cisplatin]	3	
COC[C@H]1OC(=O)c2coc3c2[C@@]1(C)C1=C(C3=O)[C@@H]2CCC(=O)[C@@]2(C)C[C@H]1OC(C)=O [Wortinannin]		inhibition of Chk1 serine 296 phosphorylation (Chk1): not inhibited
COc1cc([C@@H]2c3cc4c(cc3[C@@H](O[C@@H]3O[C@@H]5CO[C@@H](C)O[C@H]5[C@H](O)[C@H]3O)[C@H]3COC(=O)[C@H]23)OCO4)cc(OC)c1O [Etoposide, etoposide]	3	
O=c1[nH]cc(F)c(=O)[nH]1 [5-FU, 5-fluorouracil]	12	
